Blank lines part the entries; values can stand above or below the molecule they belong to.
Assays:
Format in all cases: cell-based, human
[1] = system: endothelial barrier of bioengineered vessels; assay: Endothelium integrity: Evans blue extravasation; settings: 0.5% in circulation loop 10 min, PBS wash 20 min
Experimental: Evans blue (Sigma-Aldrich) was injected at a final concentration of 0.5% in the circulation loop of the bioreactor for 10 min followed by continuous PBS washing for 20 min. Vessels were cut open longitudinally and en face preparations were analysed macroscopically with photo documentation. Restriction of paracellular transport was determined by measuring FITC dextran extravasation to the tissue chamber as described ([Gaillard et al., 2001]). […] After 1 hr tissue media was collected, fluorescent was read at RT on an EnSpire 2300 Multilabel Plate Reader (492Ex/518Em) and the permeability coefficient (Papp) was calculated using the following equation: Papp=(dQ/dt)*(1/A*C0*60) where dQ/dt is the amount of FITC-dextran transported per minute (ng/min), A is the surface area of the tissue (cm [[Attems and Jellinger, 2014]]), C0 is the initial concentration of FITC-Dextran (ng/ml) and 60 is the conversion from minutes to seconds.

[2] = system: bioengineered tripartite vessels; assay: Aβ accumulation in tripartite bioengineered cerebral vessels (ELISA); settings: GW3965 0.8 μM 72 hr, HDL 200 μg/ml luminal
Experimental: Bioengineered constructs were fabricated using a dynamic, semi-pulsatile flow bioreactor system. Tubular biodegradable scaffolds (length 1.5 cm and inner diameter 2 mm) were produced as described ([Robert et al., 2013a]; [Robert et al., 2017]) with minor modifications. Briefly, non-woven polyglycolic acid (PGA, Biomedical Structure, Warwick, RI) meshes (thickness: 1 mm and density: 70 mg/cc) were dip-coated with polycaprolactone (PCL) and polylactate (PLA) by dipping PGA mesh in a solution of 1.75% (w/w) PCL/PLA/tetrahydrofuran (THF) solution (Sigma-Aldrich, St. Louis, MO), shaped into tubes using heat, and externally coated with a 10% PCL/THF (w/w) solution. Scaffolds were sterilized by immersion in 70% ethanol for 30 min followed by three PBS washes and then immersion in advanced DMEM supplemented with 10% FBS for at least 12 hr. […]
All experiments were conducted under an approved clinical protocol (UBC Clinical Ethics Research Board H14-03357). […] Total protein concentration was assessed using the BCA assay (Thermofisher Scientific). […] ApoE concentrations were measured using ELISA as previously described ([Fan et al., 2016]). […]

[3] = system: bioengineered tripartite vessels; assay: Aβ transport across tripartite bioengineered cerebral vessels (ELISA); settings: for transport of fibrils compared to monomers: tripartite vessels, pre-aggregated (37°C, 48 hr) or monomeric Aβ 1 μM anteluminal
Experimental: Bioengineered constructs were fabricated using a dynamic, semi-pulsatile flow bioreactor system. Tubular biodegradable scaffolds (length 1.5 cm and inner diameter 2 mm) were produced as described ([Robert et al., 2013a]; [Robert et al., 2017]) with minor modifications. Briefly, non-woven polyglycolic acid (PGA, Biomedical Structure, Warwick, RI) meshes (thickness: 1 mm and density: 70 mg/cc) were dip-coated with polycaprolactone (PCL) and polylactate (PLA) by dipping PGA mesh in a solution of 1.75% (w/w) PCL/PLA/tetrahydrofuran (THF) solution (Sigma-Aldrich, St. Louis, MO), shaped into tubes using heat, and externally coated with a 10% PCL/THF (w/w) solution. Scaffolds were sterilized by immersion in 70% ethanol for 30 min followed by three PBS washes and then immersion in advanced DMEM supplemented with 10% FBS for at least 12 hr. UCMFB were seeded at density of 2−3 × 10^6 cells/cm^2 on the inner surface of the scaffold using fibrin (fibrinogen 10 mg clottable protein/ml PBS and thrombin 100–10 mU/ml PBS) as a cell carrier that was added directly to the scaffold, then incubated under static conditions for a minimum of 3 days before exposure to dynamic flow. The flow of nutrient medium (Advanced DMEM supplemented with 10% FBS, 1% L-glutamine and 0.05% Pen/Strep) was directed through the lumen of the bioreactor circulation loop to mimic blood flow for a minimum of one week. Vascular intermediates were then seeded with HUVEC (1 × 10^6 cells/cm^2) and cultivated first in static conditions for a minimum of 5 days in EGM−2 supplemented as above. For bipartite vessels, after the static phase, vascular grafts were placed back in the bioreactor for 14 additional days with increasing medium flow to a final rate of 10 ml/min by the 10th day). For tripartite vessels, after the static phase after HUVEC addition, primary astrocytes were seeded (1 × 10^6 cells/cm^2) using fibrin as a cell carrier as above on the antelumen side of the tissue. After 5 min at RT, grafts were placed under flow conditions with EGM-2 supplemented as above in the circulation chamber and complete astrocyte medium in the tissue chamber for 14 additional days with increasing medium flow to 10 ml/min by the 10th day.
The HFIP was removed by evaporation overnight and stocks were stored at −20°C. On the day of the assay, soluble monomers were prepared by reconstituting the peptide film in DMSO to 5 mM, diluted further to 100 µM in RPMI without FBS. 100 μl of Aβ solution was injected in the tissue chamber containing 900 μl of DMEM (Gibco) without FBS to the desired concentration using a syringe under flow conditions. […] For luminal recovery, 100 μl circulating medium was collected at the indicated time.
All experiments were conducted under an approved clinical protocol (UBC Clinical Ethics Research Board H14-03357). Upon receipt of written informed consent, 100 ml of fasted blood was collected from normolipidemic healthy donors into vacutainer tubes containing EDTA. Plasma HDL (1.063–1.21 g/ml) was isolated by sequential potassium bromide gradient ultracentrifugation as described ([Robert et al., 2013b]). […] Total protein concentration was assessed using the BCA assay (Thermofisher Scientific). Recombinant apoE2 and apoE4 were commercially purchased and solubilized following the manufacture’s instructions (ABCAM, apoE2 ab55210, apoE3 ab123764 and apoE4 ab50243). […] ApoE concentrations were measured using ELISA as previously described ([Fan et al., 2016]). […]

[4] = system: apoE secretion by astrocytes; assay: Native apoE secretion by astrocytes in tripartite vessels (ELISA); settings: astrocytes APOE3/E3, GW3965 1 μM circulated through lumen 72 hr
Experimental: All experiments were conducted under an approved clinical protocol (UBC Clinical Ethics Research Board H14-03357). Upon receipt of written informed consent, 100 ml of fasted blood was collected from normolipidemic healthy donors into vacutainer tubes containing EDTA. Plasma HDL (1.063-1.21 g/ml) was isolated by sequential potassium bromide gradient ultracentrifugation as described ([Robert et al., 2013b]). The purity of the HDL preparations was verified by sodium dodecyl sulfate-polyacrylamide gel electrophoresis (SDS-PAGE) followed by Coomassie blue staining to ensure no LDL or albumin contamination (not shown). Total protein concentration was assessed using the BCA assay (Thermofisher Scientific). Recombinant apoE2 and apoE4 were commercially purchased and solubilized following the manufacture's instructions (ABCAM, apoE2 ab55210, apoE3 ab123764 and apoE4 ab50243). […] ApoE concentrations were measured using ELISA as previously described ([Fan et al., 2016]). Briefly, ELISA plates were coated overnight with anti-human apoE mAB […] antibody (MabTech, Cincinnati, OH, RRID: AB_1925746) at 1.55 μg/mL in PBS at 4°C, washed two times with PBST (0.05% Tween 20 in PBS), and blocked with 0.1% Blocker A (MesoScale Discovery, Rockville, MA) in PBST. […] Fluorescence was read after 15 min at RT on an EnSpire 2300 Multilabel Plate Reader (325Ex/420Em).

NO synthase = assay: NO measurement: conversion of L-3H-arginine to L-3H-citruline in tripartite vessels
Experimental: NO synthesis was measured as described ([Robert et al., 2013a]) using a commercial NOS activity assay kit (Caymenchemical, Ann Arbor, MI). Briefly, a 2–3 mm ring of vascular tissue was mechanically ground in 150 μl of ice cold homogenized buffer (25 mM Tris-Cl, pH7.4, 1 mM EDTA and 1 mM EGTA) and centrifuged 15 min at 4°C at 10,000 g. The supernatant was aliquoted and incubated in reaction buffer containing 25 mM Tris-Cl, pH7.4, 0.25 mM EDTA, 0.6 mM CaCl2, 1 mM NADP, 200 nM calmodulin, 3 µM tetrahydrobiopterin, 1 µM flavin adenine dinucleotide, 1 µM flavin adenine monoucleotide and 0.2 µCi L-^3H-arginine; PerkinElmer, Waltham, MA) in the presence of 10 nM acetylcholine (Ach), 0.2 mg/ml HDL or 1 mM L-NG-nitroarginine methyl ester (L-NAME). After 60 min at 37°C, the reaction was stopped by adding 400 μl of stop buffer ([…] HEPES, 5 mM EDTA, pH 5.5). The solution was loaded onto an ion exchange column equilibrated with stop buffer to separate L-^3H-citruline from L-^3H-arginine. Scintillation mix (Ultimate Gold, PerkinElmer) was added to the supernatant and counted using LS6500 β-counter (Beckman Coulter, Brea, CA). The percent citrulline formed was calculated as follows: % conversion = (cpm reaction-cpm background)/cpm total *100.

[5] = system: bioengineered bipartite vessels; assay: Aβ transport from anteluminal tissue chamber to luminal circulation across bipartite vessels (ELISA); settings: 1 μM monomers anteluminal, luminal medium sampled over 4 hr
Experimental: Bioengineered constructs were fabricated using a dynamic, semi-pulsatile flow bioreactor system. Tubular biodegradable scaffolds (length 1.5 cm and inner diameter 2 mm) were produced as described ([Robert et al., 2013a]; [Robert et al., 2017]) with minor modifications. Briefly, non-woven polyglycolic acid (PGA, Biomedical Structure, Warwick, RI) meshes (thickness: 1 mm and density: 70 mg/cc) were dip-coated with polycaprolactone (PCL) and polylactate (PLA) by dipping PGA mesh in a solution of 1.75% (w/w) PCL/PLA/tetrahydrofuran (THF) solution (Sigma-Aldrich, St. Louis, MO), shaped into tubes using heat, and externally coated with a 10% PCL/THF (w/w) solution. Scaffolds were sterilized by immersion in 70% ethanol for 30 min followed by three PBS washes and then immersion in advanced DMEM supplemented with 10% FBS for at least 12 hr. UCMFB were seeded at density of 2−3 × 10^6 cells/cm^2 on the inner surface of the scaffold using fibrin (fibrinogen 10 mg clottable protein/ml PBS and thrombin 100–10 mU/ml PBS) as a cell carrier that was added directly to the scaffold, then incubated under static conditions for a minimum of 3 days before exposure to dynamic flow. The flow of nutrient medium (Advanced DMEM supplemented with 10% FBS, 1% L-glutamine and 0.05% Pen/Strep) was directed through the lumen of the bioreactor circulation loop to mimic blood flow for a minimum of one week. […]

[6] = system: bioengineered bipartite vessels; assay: Aβ fibrillization in bioengineered vessels (Thioflavin-S staining, Thioflavin-T quantification)

Evans blue penetration into vessels with endothelium ([1]; vessels seeded with EC): excluded
Molecule: Cc1cc(-c2ccc(/N=N/c3ccc4c(S(=O)(=O)O)cc(S(=O)(=O)O)c(N)c4c3O)c(C)c2)ccc1/N=N/c1ccc2c(S(=O)(=O)O)cc(S(=O)(=O)O)c(N)c2c1O [Evans blue]
Evans blue penetration into tissue without EC ([1]; tissue prepared without EC): penetrated into tissue prepared without EC

Molecule: O=C(O)Cc1cccc(OCCCN(Cc2cccc(C(F)(F)F)c2Cl)CC(c2ccccc2)c2ccccc2)c1 [GW3965]
effect on accumulation of Aβ40 within tripartite tissues after 24 hr ([2]; Aβ40 1 μM anteluminal): neither GW3965, HDL, nor both GW3965 and HDL affected accumulation | effect on accumulation of Aβ42 within tripartite tissues after 24 hr ([2]; Aβ42 1 μM anteluminal): neither GW3965, HDL, nor both GW3965 and HDL affected accumulation | effect on Aβ40 transport through tripartite vessels over 4 hr ([3]; Aβ40 1 μM anteluminal, GW3965 0.8 μM 72 hr, HDL 200 μg/ml luminal): neither GW3965 alone nor HDL alone modified the rate | effect on Aβ42 transport through tripartite vessels over 4 hr ([3]; Aβ42 1 μM anteluminal, GW3965 0.8 μM 72 hr, HDL 200 μg/ml luminal): neither GW3965 alone nor HDL alone modified the rate | secretion of native apoE into medium [4]: significantly stimulated the secretion of native apoE

Molecule: COC(=O)[C@@H](N)CCCNC(N)=N[N+](=O)[O-] [L-NAME, L-NG-nitroarginine methyl ester]
NO production in the presence of NO synthase inhibitor (NO synthase; 1 mM L-NAME with Ach or HDL stimulation, 60 min): the conversion was blocked

Molecule: CC(=O)OCC[N+](C)(C)C [acetylcholine]
NO production: conversion of L-3H-arginine to L-3H-citruline (NO synthase; 10 nM acetylcholine or 200 μg/ml HDL, 60 min at 37°C): significant increase

Molecule: Aβ40 fibrils: Aβ40 incubated at 37°C for 48 hr after reconstitution in RPMI
transport of fibrils compared to monomers ([3]; over 4 hr): significantly slower transport

Molecule: Aβ42 fibrils: Aβ42 incubated at 37°C for 48 hr after reconstitution in RPMI
transport of fibrils compared to monomers ([3]; over 4 hr): significantly slower transport

Molecule: Aβ42: Recombinant Aβ42 peptide (California Peptide Research), soluble monomers
Aβ recovery into circulation medium, tripartite compared to bipartite vessels ([3]; 1 μM monomers anteluminal, over 4 hr): increased | Aβ transport into circulating medium, bioengineered vessels versus scaffold-only controls [5]: transported at a slower rate | beta-sheet formation in tissue lysates (Thioflavin-T) ([6]; 1 μM monomers anteluminal, RIPA lysate, 20 μM Thioflavin-T, ex 440 nm / em 490 nm): increasing signal over time | Aβ fibrillization in the bioengineered vessels (Thioflavin-S) ([6]; monomers 0, 0.1, 1.0 and 10 μM anteluminal, 48 hr, Thioflavin-S staining): dose-dependent fibrillization
